Activity calls are given as the source filed them. The rule behind the calls is not given here.
Key:
PANC-1 [1] = assay: Downregulation of p-PRAS40 level at threonine 246 residue in Akt1 knockout human PANC-1 cells measured after 24 hrs by Western blotting analysis; type: functional, cell-based; details: dose 0.3-5 µM
PANC-1 [2] = assay: Downregulation of p-AKT level at serine 473 residue in Akt1 knockout human PANC-1 cells measured after 24 hrs by Western blotting analysis; type: functional, cell-based; details: dose 0.3-5 µM
[3] = target: RAC-gamma serine/threonine-protein kinase (Homo sapiens, UniProt Q9Y243)
RAC-gamma serine/threonine-protein kinase, sequence (Q9Y243 whole entry): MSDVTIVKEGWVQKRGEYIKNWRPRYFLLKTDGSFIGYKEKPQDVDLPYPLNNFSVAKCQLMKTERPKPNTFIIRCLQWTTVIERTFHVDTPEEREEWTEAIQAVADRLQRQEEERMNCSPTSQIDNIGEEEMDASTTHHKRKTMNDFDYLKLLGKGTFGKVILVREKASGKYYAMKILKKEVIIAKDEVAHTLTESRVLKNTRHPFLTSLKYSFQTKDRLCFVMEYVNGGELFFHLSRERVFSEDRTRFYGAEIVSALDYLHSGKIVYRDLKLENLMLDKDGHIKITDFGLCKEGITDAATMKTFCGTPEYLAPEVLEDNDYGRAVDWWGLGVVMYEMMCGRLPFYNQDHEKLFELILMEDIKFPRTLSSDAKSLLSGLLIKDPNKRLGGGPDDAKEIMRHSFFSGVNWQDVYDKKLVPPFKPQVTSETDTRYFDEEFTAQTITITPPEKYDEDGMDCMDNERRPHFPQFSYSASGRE
Description: Inhibition of wild-type AKT3 (unknown origin) by HTRF KinEASE assay

[4] = target: RAC-alpha serine/threonine-protein kinase (Homo sapiens, UniProt P31749); assay: biochemical
RAC-alpha serine/threonine-protein kinase, sequence (P31749 whole entry): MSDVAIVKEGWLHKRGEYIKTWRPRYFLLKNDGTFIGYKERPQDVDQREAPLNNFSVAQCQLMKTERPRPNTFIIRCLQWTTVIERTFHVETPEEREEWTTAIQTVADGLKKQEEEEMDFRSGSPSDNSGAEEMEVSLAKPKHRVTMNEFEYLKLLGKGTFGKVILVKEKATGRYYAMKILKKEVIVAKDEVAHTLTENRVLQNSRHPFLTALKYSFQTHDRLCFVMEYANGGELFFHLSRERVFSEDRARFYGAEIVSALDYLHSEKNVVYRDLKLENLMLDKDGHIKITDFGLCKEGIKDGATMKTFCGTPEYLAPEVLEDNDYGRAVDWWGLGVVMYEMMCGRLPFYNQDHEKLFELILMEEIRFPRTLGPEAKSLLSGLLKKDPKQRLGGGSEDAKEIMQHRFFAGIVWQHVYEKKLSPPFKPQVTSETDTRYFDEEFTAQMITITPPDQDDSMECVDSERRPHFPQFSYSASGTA

Compound | Activity (PANC-1 [1]) | Activity (PANC-1 [2]) | IC50 [3] [µM] | IC50 [4] [µM]
C=CC(=O)Nc1ccc2[nH]c(=O)n(C3CCN(Cc4ccc(-c5[nH]c(=O)c(C)nc5-c5ccccc5)cc4)CC3)c2c1 | Active | Active |  | 
Nc1ccc2[nH]c(=O)n(C3CCN(Cc4ccc(-c5[nH]c(=O)c(Cc6ccc(O)cc6)nc5-c5ccccc5)cc4)CC3)c2c1 |  |  | 17.7 | 5.59
C=CC(=O)Nc1ccc2[nH]c(=O)n(C3CCN(Cc4ccc(-c5nc6cc[nH]c(=O)c6cc5-c5ccccc5)cc4)CC3)c2c1 | Active | Active |  | 
C=CC(=O)Nc1ccc2[nH]c(=O)n(C3CCN(Cc4ccc(-c5[nH]c(=O)c(CC(C)C)nc5-c5ccccc5)cc4)CC3)c2c1 | Active | Active |  | 
CC(C)Cc1nc(-c2ccccc2)c(-c2ccc(CN3CCC(n4c(=O)[nH]c5ccc(N)cc54)CC3)cc2)[nH]c1=O |  |  |  | 2.83
